Data published in patent publication US10258033B2 (Eden Research PLC, priority 2005, dated 2019).

What was measured:
S. aureus = assay: MIC of terpene emulsions and fresh or freeze-dried Baker's YP / SAF Mannan encapsulated terpenes against S. aureus; assay type: cell-based; settings: for MIC μg/ml terpene, Bakers Freeze Dried / MIC μg/ml terpene, Bakers Fresh: encapsulated in Baker's YP; for MIC μg/ml terpene, SAF Mannan Freeze Dried / MIC μg/ml terpene, SAF Mannan Fresh: encapsulated in SAF Mannan; for MIC μg/ml terpene, Emulsion: not encapsulated
Experimental: The results of a protocol performed to compare the MIC of fresh versus freeze dried hollow glucan particle encapsulated terpene formulations are shown below in Table 13. A simple terpene emulsion was also tested and the results are shown for comparison.

[1] = Suspension and solution of citral in water; assay type: physicochemical
From the text: In one embodiment the terpene component includes one or more terpenes which contain oxygen.

E. coli = settings: cited from earlier work
H. pylori = settings: cited from earlier work

| Molecule | MIC μg/ml terpene, Bakers Freeze Dried (S. aureus) [μg/ml terpene] | MIC μg/ml terpene, Bakers Fresh (S. aureus) [μg/ml terpene] | MIC μg/ml terpene, SAF Mannan Freeze Dried (S. aureus) [μg/ml terpene] | MIC μg/ml terpene, SAF Mannan Fresh (S. aureus) [μg/ml terpene] | MIC μg/ml terpene, Emulsion (S. aureus) [μg/ml terpene] | solution, maximum concentration [1] | stable suspension, maximum concentration [1] | stable suspension of hollow glucan particles incorporating citral ([1]; ppt citral) [ppt] | concentration in growth media that reduced the concentration of E. coli (E. coli) | concentration with bactericidal effect (E. coli) [%] | concentration that inhibited the growth of H. pylori in vitro (H. pylori) [mg/L] |
| --- | --- | --- | --- | --- | --- | --- | --- | --- | --- | --- | --- |
| C=CCc1ccc(O)c(OC)c1 [Eugenol] | 0.05 | 0.03 | 0.05 | 0.01 | 0.12 | – | – | – | – | – | – |
| CC(C)=CCCC(C)=CC=O [Citral, 3,7-dimethyl-2,6-octadien-1-al] | 0.05 | 0.01 | >0.03 | 0.01 | 0.94 | up to 500 ppm | up to 2500 ppm | 25 | more than 0.01% | 0.08 | – |
| L-carvone | >0.04 | 0.1 | >0.02 | 0.01 | 3.75 | – | – | – | – | – | – |
| CC(C)=CCC/C(C)=C/CO [Geraniol] | 0.06 | 0.03 | >0.03 | 0.02 | 0.47 | – | – | – | – | – | 2 |
